This passage reports IC50 results from US8815881B2 (Hoffmann-La Roche Inc., priority 2010, dated 2014).

In the assay the target is endogenous cellular BACE2 in the Ins1e rat cell line (Rattus norvegicus (Rat), UniProt Q6IE75). In words: Assay for BACE inhibition by measuring cellular TMEM27 cleavage (ELISA of shed hTMEM27 from INS-TMEM27 cells). The format is cell-based. As to conditions: assay a): cellular TMEM27 cleavage, INS-TMEM27 cells (superscript a). The method in brief: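 Shed human TMEM27 is quantified by ELISA in medium of TetOn INS1e cells after 46 h at 37 °C. Compound is dosed across a concentration range, followed 2 h later by doxycycline induction at 500 ng/ml. Each concentration's readout is curve-fitted to give the EC50.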
A general note: ELISA stands for enzyme-linked immunosorbent assay.

endogenous cellular BACE2 in the Ins1e rat cell line, sequence (Q6IE75 63-514): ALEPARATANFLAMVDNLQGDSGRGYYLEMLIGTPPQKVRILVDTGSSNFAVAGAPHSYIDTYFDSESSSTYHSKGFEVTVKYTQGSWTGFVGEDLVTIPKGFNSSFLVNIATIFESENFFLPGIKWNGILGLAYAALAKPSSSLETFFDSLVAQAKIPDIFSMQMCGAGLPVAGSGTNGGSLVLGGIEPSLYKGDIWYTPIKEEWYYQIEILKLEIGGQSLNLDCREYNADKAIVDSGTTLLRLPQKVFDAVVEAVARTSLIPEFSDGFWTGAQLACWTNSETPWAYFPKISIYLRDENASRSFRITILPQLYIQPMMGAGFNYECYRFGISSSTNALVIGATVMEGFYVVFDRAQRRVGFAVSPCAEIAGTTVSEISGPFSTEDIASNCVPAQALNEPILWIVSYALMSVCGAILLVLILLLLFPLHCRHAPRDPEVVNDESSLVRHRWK

Usually IC50 stands for the midpoint of a concentration-inhibition curve. Low readings indicate greater potency in that assay, high ones weaker potency in that assay. `CN1C(=O)C(C)(C)[C@@](C)(c2cc(NC3COc4ccccc43)ccc2F)N=C1N` (stereo partly drawn) [Example 51, (6S)-2-amino-6-(5-(2,3-dihydrobenzofuran-3-ylamino)-2-fluorophenyl)-3,5,5,6-tetramethyl-5,6-dihydropyrimidin-4(3H)-one]: the IC50 was 73 nM.

`CN1C(=O)C(C)(C)[C@@](C)(c2cc(NC[C@@H]3C[C@H]3c3ccccc3)ccc2F)N=C1N` [Example 97, (S)-2-Amino-6-{2-fluoro-5-[((1R,2R)-2-phenyl-cyclopropylmethyl)-amino]-phenyl}-3,5,5,6-tetramethyl-5,6-dihydro-3H-pyrimidin-4-one] yielded an IC50 of 242 nM.

With `CN1C(=O)C(C)(C)[C@@](C)(c2cc(NC3CCOC3)ccc2F)N=C1N` (stereo partly drawn) [Example 22, (S)-2-Amino-6-[2-fluoro-5-(tetrahydro-furan-3-ylamino)-phenyl]-3,5,5,6-tetramethyl-5,6-dihydro-3H-pyrimidin-4-one], inhibition was half-maximal at 5 nM (IC50).

`Cc1cn[nH]c1CNc1ccc(F)c([C@@]2(C)N=C(N)N(C)C(=O)C2(C)C)c1` [Example 110, (S)-2-Amino-6-{2-fluoro-5-[(4-methyl-2H-pyrazol-3-ylmethyl)-amino]-phenyl}-3,5,5,6-tetramethyl-5,6-dihydro-3H-pyrimidin-4-one] displayed a 50% inhibitory concentration (IC50) of 391 nM.

`COc1cc(F)ccc1Nc1ccc(F)c([C@@]2(C)N=C(N)N(C)C(=O)C2(C)C)c1` [Example 82, (S)-2-Amino-6-(2-fluoro-5-(4-fluoro-2-methoxyphenylamino)phenyl)-3,5,5,6-tetramethyl-5,6-dihydropyrimidin-4(3H)-one] registered an IC50 of 135 nM.

`CN1C(=O)C(C)(C)[C@@](C)(c2cc(Nc3cccc4c3OCC4)ccc2F)N=C1N` [Example 157, (S)-2-Amino-6-(5-(2,3-dihydrobenzofuran-7-ylamino)-2-fluorophenyl)-3,5,5,6-tetramethyl-5,6-dihydropyrimidin-4(3H)-one]: 654 nM corresponded to half-maximal inhibition (IC50).

As for `CN1C(=O)C(C)(C)[C@@](C)(c2cc(NC3COC3)ccc2F)N=C1N` [Example 132, (S)-2-Amino-6-[2-fluoro-5-(oxetan-3-ylamino)-phenyl]-3,5,5,6-tetramethyl-5,6-dihydro-3H-pyrimidin-4-one], 54 nM corresponded to half-maximal inhibition (IC50).

`CN1C(=O)C(C)(C)[C@@](C)(c2cc(NC(=O)C3CC3(C)C)ccc2F)N=C1N` (stereo partly drawn) [Example 19, N-(3-((S)-2-Amino-1,4,5,5-tetramethyl-6-oxo-1,4,5,6-tetrahydropyrimidin-4-yl)-4-fluorophenyl)-2,2-dimethylcyclopropanecarboxamide] gave an IC50 of 74 nM.

With `CN1C(=O)C(C)(C)[C@@](C)(c2cc(NC3CCCC3Cl)ccc2F)N=C1N` (stereo partly drawn) [Example 30, (6S)-2-Amino-6-(5-(2-chlorocyclopentylamino)-2-fluorophenyl)-3,5,5,6-tetramethyl-5,6-dihydropyrimidin-4(3H)-one], the IC50 came out at 33 nM.

`CN1C(=O)C(C)(C)[C@@](C)(c2cc(NCC3CCOC3)ccc2F)N=C1N` (stereo partly drawn) [Example 76, (S)-2-Amino-6-{2-fluoro-5-[(tetrahydro-furan-3-ylmethyl)-amino]phenyl}-3,5,5,6-tetramethyl-5,6-dihydro-3H-pyrimidin-4-one] displayed a half-maximal inhibitory concentration (IC50) of 15 nM.

Compound `Cc1cc(C(C)Nc2ccc(F)c([C@@]3(C)N=C(N)N(C)C(=O)C3(C)C)c2)[nH]n1` (stereo partly drawn) [Example 125, (S)-2-Amino-6-{2-fluoro-5-[1-(5-methyl-2H-pyrazol-3-yl)-ethylamino]-phenyl}-3,5,5,6-tetramethyl-5,6-dihydro-3H-pyrimidin-4-one] displayed a 50% inhibitory concentration (IC50) of 28 nM.

In the case of `COc1ccc(F)cc1Nc1ccc(F)c([C@@]2(C)N=C(N)N(C)C(=O)C2(C)C)c1` [Example 84, (S)-2-Amino-6-(2-fluoro-5-(5-fluoro-2-methoxyphenylamino)phenyl)-3,5,5,6-tetramethyl-5,6-dihydropyrimidin-4(3H)-one], the midpoint of inhibition, the IC50, lay at 69 nM.

With `CN1C(=O)C[C@]2(CCc3ccc(NC(=O)C4(C(F)(F)F)CC4)cc32)N=C1N` [Example 15, (S)—N-(2′-Amino-1′-methyl-6′-oxo-2,3,5′,6′-tetrahydro-1′H-spiro[indene-1,4′-pyrimidine]-6-yl)-1-(trifluoromethyl)cyclopropanecarboxamide], half-maximal inhibition (IC50) required 7 nM.

Turning to `CCOC(=O)CC1CCC(Nc2ccc(F)c([C@@]3(C)N=C(N)N(C)C(=O)C3(C)C)c2)C1(C)C` (stereo partly drawn) [Example 98, {3-[3-((S)-2-Amino-1,4,5,5-tetramethyl-6-oxo-1,4,5,6-tetrahydro-pyrimidin-4-yl)-4-fluoro-phenylamino]-2,2-dimethyl-cyclopentyl}-acetic acid ethyl ester], half-maximal inhibition (IC50) was put at 57 nM.

Take `CCC[C@@]1(c2cccc(NC(=O)C3(C(F)(F)F)CC3)c2)CC(=O)N(C)C(N)=N1` [Example 14, 1-Trifluoromethyl-cyclopropanecarboxylic acid [3-((S)-2-amino-1-methyl-6-oxo-4-propyl-1,4,5,6-tetrahydro-pyrimidin-4-yl)-phenyl]-amide]: 120 nM corresponded to half-maximal inhibition (IC50).

`CN1C(=O)C(C)(C)[C@@](C)(c2cc(NC3CCCC3C#N)ccc2F)N=C1N` (stereo partly drawn) [Example 135, 2-[3-((S)-2-Amino-1,4,5,5-tetramethyl-6-oxo-1,4,5,6-tetrahydro-pyrimidin-4-yl)-4-fluoro-phenylamino]-cyclopentanecarbonitrile] yielded an IC50 of 1 nM.

As to `CN1C(=O)C(C)(C)[C@@](C)(c2cc(NCC3(C(F)(F)F)CC3)ccc2F)N=C1N` [Example 87, (S)-2-Amino-6-{2-fluoro-5-[(1-trifluoromethyl-cyclopropylmethyl)-amino]-phenyl}-3,5,5,6-tetramethyl-5,6-dihydro-3H-pyrimidin-4-one], half-maximal inhibition (IC50) was put at 119 nM.

In turn, `CN1C(=O)C(C)(C)[C@@](C)(c2cc(NC(=O)C(C)(C)F)ccc2F)N=C1N` [Example 16, (S)—N-(3-(2-Amino-1,4,5,5-tetramethyl-6-oxo-1,4,5,6-tetrahydropyrimidin-4-yl)-4-fluorophenyl)-2-fluoro-2-methylpropanamide] displayed an IC50 of 9 nM.

`CN1C(=O)C(C)(C)[C@@](C)(c2cc(NC3CC4CC3CC4O)ccc2F)N=C1N` (stereo partly drawn) [Example 101, (6S)-2-Amino-6-(2-fluoro-5-(5-hydroxybicyclo[2.2.1]heptan-2-ylamino)phenyl)-3,5,5,6-tetramethyl-5,6-dihydropyrimidin-4(3H)-one] displayed an IC50 of 1 nM.

Turning to `COc1ccc(Nc2ccc(F)c([C@@]3(C)N=C(N)N(C)C(=O)C3(C)C)c2)cc1` [Example 72, (S)-2-Amino-6-(2-fluoro-5-(4-methoxyphenylamino)phenyl)-3,5,5,6-tetramethyl-5,6-dihydropyrimidin-4(3H)-one], 201 nM corresponded to half-maximal inhibition (IC50).

`CC(Cc1ccc(F)cc1)Nc1ccc(F)c([C@@]2(C)N=C(N)N(C)C(=O)C2(C)C)c1` (stereo partly drawn) [Example 42, (S)-2-Amino-6-{2-fluoro-5-[2-(4-fluoro-phenyl)-1-methyl-ethylamino]-phenyl}-3,5,5,6-tetramethyl-5,6-dihydro-3H-pyrimidin-4-one]: the IC50 was found to be 211 nM.

Compound `CN1C(=O)C(C)(C)[C@@](C)(c2cc(Nc3ccnn3C)ccc2F)N=C1N` [Example 36, (S)-2-Amino-6-[2-fluoro-5-(2-methyl-2H-pyrazol-3-ylamino)-phenyl]-3,5,5,6-tetramethyl-5,6-dihydro-3H-pyrimidin-4-one] displayed an IC50 of 535 nM.

For `CC(Nc1ccc(F)c([C@@]2(C)N=C(N)N(C)C(=O)C2(C)C)c1)c1ccn[nH]1` (stereo partly drawn) [Example 111, (S)-2-Amino-6-{2-fluoro-5-[1-(2H-pyrazol-3-yl)-ethylamino]-phenyl}-3,5,5,6-tetramethyl-5,6-dihydro-3H-pyrimidin-4-one], half-maximal inhibition (IC50) required 46 nM.

Regarding `CC(Nc1ccc(F)c([C@@]2(C)N=C(N)N(C)C(=O)C2(C)C)c1)c1ccccn1` (stereo partly drawn) [Example 40], it took 21 nM to reach half-maximal inhibition (IC50).

`C[C@@]1(c2cccc(NC(=O)C3(C(F)(F)F)CC3)c2)CC(=O)N(CC2CC2)C(N)=N1` [Example 13, 1-Trifluoromethyl-cyclopropanecarboxylic acid [3-((S)-2-amino-1-c-cyclopropylmethyl-4-methyl-6-oxo-1,4,5,6-tetrahydro-pyrimidin-4-yl)-phenyl]-amide] came in with an IC50 of 190 nM.

On to `CN1C(=O)C(C)(C)[C@@](C)(c2cc(NC3CCC(C(F)(F)F)CC3)ccc2F)N=C1N` (stereo partly drawn) [Example 41, (S)-2-amino-6-(2-fluoro-5-(4-(trifluoromethyl)cyclohexylamino)phenyl)-3,5,5,6-tetramethyl-5,6-dihydropyrimidin-4(3H)-one], for which the IC50 stood at 426 nM.

`CN1C(=O)C(C)(C)[C@@](C)(c2cc(NC3CCC(CC(=O)O)C3)ccc2F)N=C1N` (stereo partly drawn) [Example 115, 2-(3-(3-((S)-2-Amino-1,4,5,5-tetramethyl-6-oxo-1,4,5,6-tetrahydropyrimidin-4-yl)-4-fluorophenylamino)cyclopentyl)acetic acid] came in with an IC50 of 977 nM.

For `CN1C(=O)C(C)(C)[C@@](C)(c2cc(NC(=O)C3(C)CC3)ccc2F)N=C1N` [Example 18, (S)—N-(3-(2-Amino-1,4,5,5-tetramethyl-6-oxo-1,4,5,6-tetrahydropyrimidin-4-yl)-4-fluorophenyl)-1-methylcyclopropanecarboxamide], 23 nM corresponded to half-maximal inhibition (IC50).

Turning to `Cc1cc(C)c(Nc2ccc(F)c([C@@]3(C)N=C(N)N(C)C(=O)C3(C)C)c2)cc1C` [Example 146, (S)-2-Amino-6-(2-fluoro-5-(2,4,5-trimethylphenylamino)phenyl)-3,5,5,6-tetramethyl-5,6-dihydropyrimidin-4(3H)-one], the half-maximal inhibitory concentration (IC50) was found to be 257 nM.

The compound `COc1cccc(Nc2ccc(F)c([C@@]3(C)N=C(N)N(C)C(=O)C3(C)C)c2)c1` [Example 79, (S)-2-Amino-6-(2-fluoro-5-(3-methoxyphenylamino)phenyl)-3,5,5,6-tetramethyl-5,6-dihydropyrimidin-4(3H)-one] had an IC50 of 44 nM.
